Here are results for one compound from US20060089824A1, “Methods and systems for drug screening and computational modeling” (priority 2002, published 2006).

The target in this test is D1 receptor (Homo sapiens, UniProt P21728). The test is described as follows: Calculated fraction of D1 receptors occupied from Ki and free drug concentration. To be noted: at a therapeutic olanzapine level. The text has this: In particular, affinities of many drugs for receptors are well known. For example, Goodman and Gilmans “The Pharmacological Basis of Therapeutics,” Tenth Edition. […] [formula]
Sequence of D1 receptor (P21728 whole entry): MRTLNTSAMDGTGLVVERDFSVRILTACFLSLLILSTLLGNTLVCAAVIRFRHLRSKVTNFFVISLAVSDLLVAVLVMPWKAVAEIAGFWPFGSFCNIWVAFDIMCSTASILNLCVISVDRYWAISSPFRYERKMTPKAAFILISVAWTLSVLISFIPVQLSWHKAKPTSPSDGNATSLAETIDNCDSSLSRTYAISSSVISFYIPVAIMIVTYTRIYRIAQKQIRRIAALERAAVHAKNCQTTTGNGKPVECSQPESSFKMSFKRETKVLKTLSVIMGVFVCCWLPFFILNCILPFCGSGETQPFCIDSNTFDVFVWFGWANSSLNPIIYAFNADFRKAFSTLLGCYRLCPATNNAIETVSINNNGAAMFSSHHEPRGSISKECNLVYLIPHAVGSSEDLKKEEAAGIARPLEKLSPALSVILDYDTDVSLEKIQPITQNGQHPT

Regarding `Cc1cc2c(s1)Nc1ccccc1N=C2N1CCN(C)CC1` [olanzapine], the “D1 receptors blocked (antagonized)” value is on record as “approximately 47%”.
